# Laboratory results published in patent US5017723A, “Substituted ethylamines, their preparation process, their use as medicine and their synthesising agents” (Jouveinal S.A., priority 1990, dated 1991).
# Like-named read-outs stand apart in the source and are kept apart here.
# Legend:
# opiated mu receptor = opiated mu receptor (Cavia porcellus, UniProt A0ACM8Q262); format: binding, guinea pig
# Method: (§1) The analysis is carried out in accordance with the technique described by F. Roman et al. in J. Pharm. Pharmcol. 1987, 39, p. 404-407 which consists of analysing the displacement of specific radioactive ligands of the opiated mu, delta and kappa sub receptors by the action of the test products on the membranous receptors of a guinea pig.
# bladder of the rat = assay: Transvesical cystomanometry on wide awake rat (urological activity); format: in vivo, female rat; conditions: for change in vivo at 5 mg/kg / change in vivo at 1 mg/kg / change in vivo at 2.5 mg/kg: Rattus norvegicus, iv; for change in vivo at 5 mg/kg: 5,0 mg/kg i.v.; for change in vivo at 1 mg/kg: 1,0 mg/kg i.v.; for activity on the urinary tract compared to the reference compounds (in words): compared to Dicyclomine and Baclofen
# Method: Studies by a similar method of operation, the compounds of the invention (I.A) which show a mu and kappa affinity also have an activity on certain functional parameters of the bladder of the rat which justifies their interest in the treatment of dysfunctions in the urinary tract.
# The study carried out consists of transvesical cystomanometry on a wide awake rat. The following was measured during the storage and emission phases of urine under continuous intervesical perfusion of sterile physiological serum:
# the "threshold pressure", which is the intervesical pressure immediately preceding the contraction phase of the detrusor
# the volume of each urinary emission.
# The technique used in the female rat consisted of preparing the animals 48 hours before the actual experiment by effecting the implantation of two catheters in the apex of the bladder and one catheter in the left-hand jugular vein under anaesthetic, with the external end of these catheters being protected and held by a sticking plaster corset.
# The animals were placed in suitable cages at the time of the test, which were equipped so as to collect and measure the urine. For each animal one vesical catheter was connected to a pressure sensor, the other to a perfusor which supplied 0.2 ml/min. of sterile physiological serum continuously.
# The intravesical pressure was measured continuously during the perfusion and it was possible to observe:
# a filling phase of the bladder during which the pressure increased progressively,
# a sudden rising phase of this pressure during the contraction of the detrusor: the "threshold" pressure which is the pressure observed just before the pressure of the contraction phase. This threshold pressure was raised in the same way as the urinary volume at each urination.
# The study consisted of observing the changes in these parameters by the action of the products (IA) which were administered in solution by intravenous route by means of the catheter placed in the left jugular vein.
# Dicyclomine and Baclofen which have been considered for the treatment of hyperactive bladders (Drugs of Today, Vol. 24, no. 5, 1988, p. 337-348) were also used in this test in the form of comparison products.
# opiated delta receptor = molecular target: T1, opiated delta receptor (Cavia porcellus, UniProt A0A286XTF2); assay: Displacement of specific radioactive ligands, opiated delta receptor; format: binding, guinea pig; conditions: inhibition of 50% of radioligand bonds; read-out: CI50 affinity delta rec.
# T1 construct: membranous receptors of a guinea pig; from tissue
# T1 sequence (A0A286XTF2 1-366): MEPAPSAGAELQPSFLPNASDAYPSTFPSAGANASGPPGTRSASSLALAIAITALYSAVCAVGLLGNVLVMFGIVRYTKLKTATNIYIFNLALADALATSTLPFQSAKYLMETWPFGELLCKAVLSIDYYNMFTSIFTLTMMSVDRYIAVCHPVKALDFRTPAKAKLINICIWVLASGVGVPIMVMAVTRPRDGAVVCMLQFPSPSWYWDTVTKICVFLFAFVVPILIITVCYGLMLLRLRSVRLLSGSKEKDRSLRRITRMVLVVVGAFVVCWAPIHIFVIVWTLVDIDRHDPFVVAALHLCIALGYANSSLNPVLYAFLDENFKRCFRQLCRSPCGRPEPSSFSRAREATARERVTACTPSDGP
# Method: as §1
# opiated kappa receptor = molecular target: T2, opiated kappa receptor (Cavia porcellus, UniProt P41144); assay: Displacement of specific radioactive ligands, opiated kappa receptor; format: binding, guinea pig; conditions: inhibition of 50% of radioligand bonds; read-out: CI50 affinity kappa rec.
# T2 construct: membranous receptors of a guinea pig; from tissue
# T2 sequence (P41144 whole entry): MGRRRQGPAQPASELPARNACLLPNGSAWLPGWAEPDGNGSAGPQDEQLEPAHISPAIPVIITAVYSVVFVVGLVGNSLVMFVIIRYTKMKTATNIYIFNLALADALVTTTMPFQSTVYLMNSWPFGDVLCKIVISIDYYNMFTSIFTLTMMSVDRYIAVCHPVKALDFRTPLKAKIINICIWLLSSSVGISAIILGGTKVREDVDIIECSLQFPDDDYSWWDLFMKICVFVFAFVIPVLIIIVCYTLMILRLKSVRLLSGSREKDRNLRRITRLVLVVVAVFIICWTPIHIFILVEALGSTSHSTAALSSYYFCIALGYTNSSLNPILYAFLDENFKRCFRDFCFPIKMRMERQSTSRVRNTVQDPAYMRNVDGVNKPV
# Method: as §1
# [1] = test system: convulsion induced by picrotoxine in mice; assay: Protection against picrotoxine-induced convulsion (suppression of the tonic extension phase); format: in vivo, male Swiss mice; conditions: for responders at 50 mg/kg / responders at 100 mg/kg / ED50: Mus musculus; for responders at 50 mg/kg: 0.5 h, read-out: i.p.: % prot. (percentage of protected animals), 50 mg/kg i.p., picrotoxine 24 mg/kg i.p. 30 min later; for responders at 100 mg/kg: 1 h, read-out: p.o.: % prot. (percentage of protected animals), 100 mg/kg p.o., picrotoxine 24 mg/kg i.p. 60 min later
# Excerpt: The psychotropic properties of the compounds have been determined by the protection of the induced convulsion by picrotoxine for mice, which is achieved by the method derived from that of Krall et al., "Epilepsia", 1978, 19, p. 409-428.
# The administration of picrotoxine caused a convulsive crisis in the animal characterised by a myoclonic extension syndrome followed by the extension of the limbs causing the animal to die. Certain substances, particularly those active on the complex GABA/benzodiazepines/Cl-ionophore makes it possible to protect the animals from this convulsive crisis.
# In practice the study is carried out on batches of 10 male "Swiss" mice weighing approximately 20 g, which are administered with the product to be studied in aqueous solution either by intraperitoneal route (i.p.) at the rate of 50 mg/kg and in a volume of 0.2 ml of solution per animal, or by oral route (p.o) in a volume of 2.0 ml of solution per animal.
# An injection of a solution of picrotoxine at the rate of 24 mg/kg in a volume of 0.2 ml per animal is then administered by interperitoneal route, either 30 minutes after administering the product by interperitoneal route or 60 minutes after administering the product by oral route. The dose of the product injected causing a clonic crisis, which results in untreated animals dying. The suppression of the extension tonic phase in the animals treated under the conditions of the test is observed. The results are expressed:
# either in percentages of protected animals of this phase to the reaction of 50 mg/kg of the compound of the study administered by i.p. route or 100 mg/kg by p.o route,
# or in DE50 for each of these routes, which is the efficient dosage of the test compound expressed in mg/kg protecting 50% of the animals of this extension phase. The significant value of the results being generally indicated in the following manner:
# * Significant result at p<0.05
# ** Significant result at p<0.01
# *** Significant highly significant at p<0.001.
# [2] = inhibition of 50% of radioligand bonds; read-out: CI50 affinity mu rec.
# [3] = read-out: % variation pressure threshold
# [4] = ip, * p<0.05, ** p<0.01, *** p<0.001
# [5] = po, * p<0.05, ** p<0.01, *** p<0.001
# Chain of opiated mu receptor (A0ACM8Q262 1-400): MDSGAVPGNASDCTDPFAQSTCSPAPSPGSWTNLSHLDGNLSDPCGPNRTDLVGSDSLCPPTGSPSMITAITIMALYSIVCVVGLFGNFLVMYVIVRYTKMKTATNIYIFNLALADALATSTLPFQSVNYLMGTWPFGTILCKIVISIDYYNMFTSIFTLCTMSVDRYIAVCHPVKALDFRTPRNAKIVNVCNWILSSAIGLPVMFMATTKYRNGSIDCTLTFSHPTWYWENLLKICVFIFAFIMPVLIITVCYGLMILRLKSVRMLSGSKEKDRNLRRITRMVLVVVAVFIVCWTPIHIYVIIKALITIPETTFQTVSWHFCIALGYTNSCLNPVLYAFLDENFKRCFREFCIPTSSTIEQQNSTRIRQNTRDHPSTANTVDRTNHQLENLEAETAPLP
Compound,IC50 (opiated mu receptor; [2]) [nM],IC50 (opiated delta receptor) [nM],IC50 (opiated kappa receptor) [nM],"responders at 50 mg/kg [1, 4] [%]","responders at 100 mg/kg [1, 5] [%]",other results
"CNC(CC=Cc1ccc(Cl)c(Cl)c1)(c1ccccc1)C(C)C (stereo not drawn) [Example 23, a-(3',4'-dichloro)cinnamyl-a-isopropyl-N-methyl-benzylamine]",80,1380,340,60,100,change in vivo at 5 mg/kg (bladder of the rat; [3]): 196%; change in vivo at 5 mg/kg (bladder of the rat; read-out: % variation volume): 35%
"CCC(CC=Cc1ccccc1)(NC)c1ccc(Cl)cc1 (stereo not drawn) [Example 19, a-cinnamyl-a-ethyl-N-methyl-p.chlorobenzylamine]",200,3490,264,70,,change in vivo at 5 mg/kg (bladder of the rat; [3]): 354%; change in vivo at 5 mg/kg (bladder of the rat; read-out: % variation volume): 54%
"CCC(CC=Cc1ccccc1)(c1ccc(OC)cc1)N(C)C (stereo not drawn) [Example 35, a-cinnamyl-N,N-dimethyl-a-ethyl-p.methoxybenzylamine]",60,1280,290,90,,"change in vivo at 1 mg/kg (bladder of the rat; [3]): 200%; change in vivo at 1 mg/kg (bladder of the rat; read-out: % variation volume): 39%; activity on the urinary tract compared to the reference compounds (in words) (bladder of the rat): important activity; ED50 ([1]; po, read-out: p.o.: DE50): 40.3 mg/kg"
CCC(CC=Cc1ccccc1)(c1ccc(C)cc1)N(C)C (stereo not drawn) [Example 33],,1230,120,,,IC50 (opiated mu receptor; read-out: CI50 affinity mu rec.; inhibition of 50% of radioligand bonds): 50 nM; activity on the urinary tract compared to the reference compounds (in words) (bladder of the rat): important activity
"CCC(N)(CC=Cc1ccccc1)c1ccc(Cl)cc1 (single isomer, unassigned; (-)) [Example 17B, (-)a-cinnamyl-a-ethyl-p.chlorobenzylamine]",11.4,,,,,"i.p.: % prot. (percentage of protected animals) ([1]; 50 mg/kg i.p., picrotoxine 24 mg/kg i.p. 30 min later, * p<0.05, ** p<0.01, *** p<0.001): 80%; p.o.: % prot. (percentage of protected animals) ([1]; 100 mg/kg p.o., picrotoxine 24 mg/kg i.p. 60 min later, * p<0.05, ** p<0.01, *** p<0.001): 50%"
"CCC(CC=Cc1ccccc1)(c1ccc(Cl)cc1)N(C)C (single isomer, unassigned; (+)) [Example 52, (+) a-cinnamyl-N,N-dimethyl-a-ethyl-p.chlorobenzylamine]",7,,99,70,90,activity on the urinary tract compared to the reference compounds (in words) (bladder of the rat): important activity
"NCC(CC(=O)O)c1ccc(Cl)cc1 (stereo not drawn) [Baclofen, reference compound]",,,,,,change in vivo at 2.5 mg/kg (bladder of the rat; [3]): 113%; change in vivo at 2.5 mg/kg (bladder of the rat; read-out: % variation volume): 32%; activity on the urinary tract compared to the reference compounds (in words) (bladder of the rat): most active comparative product in these tests
"CCN(CC)CCOC(=O)C1(C2CCCCC2)CCCCC1 [Dicyclomine, reference compound]",,,,,,"change in vivo at 2.5 mg/kg (bladder of the rat; 2,5 mg/kg i.v., read-out: % variation pressure threshold): 28%; change in vivo at 2.5 mg/kg (bladder of the rat; 2,5 mg/kg i.v., read-out: % variation volume): 20%"
"CCC(CC=Cc1ccc(Cl)c(Cl)c1)(c1ccccc1)N(C)C (stereo not drawn) [Example 36, a-(3',4'-dichloro)cinnamyl-N,N-dimethyl-a-ethyl-benzylamine]",90,680,220,,100,change in vivo at 1 mg/kg (bladder of the rat; [3]): 125%; change in vivo at 1 mg/kg (bladder of the rat; read-out: % variation volume): 36%; activity on the urinary tract compared to the reference compounds (in words) (bladder of the rat): important activity
"CCC(CC=Cc1ccc(Cl)c(Cl)c1)(NC)c1ccc(OC)cc1 (stereo not drawn) [Example 25, a-(3',4'-dichloro)cinnamyl-a-ethyl-N-methyl-p.methoxybenzylamine]",56,1590,875,,50,change in vivo at 5 mg/kg (bladder of the rat; [3]): 85%; change in vivo at 5 mg/kg (bladder of the rat; read-out: % variation volume): 67%
"CCC(CC=Cc1ccc(Cl)c(Cl)c1)(NC)c1ccc(Cl)cc1 (stereo not drawn) [Example 26, a-(3' ,4'-dichloro)cinnamyl-a-ethyl-N-methyl-p.chlorobenzylamine]",28,1070,458,,,change in vivo at 5 mg/kg (bladder of the rat; [3]): 229%; change in vivo at 5 mg/kg (bladder of the rat; read-out: % variation volume): 93%
"CCC(CC=Cc1ccc(Cl)c(Cl)c1)(NC)c1ccc(C)cc1 (stereo not drawn) [Example 24, a-(3',4'-dichloro)cinnamyl-a-ethyl-N-methyl-p.methylbenzylamin]",21,1400,410,,,"p.o.: DE50 ([1]; p.o. route, value printed with a % sign): 73,5%"
"CCC(C[C@@H]1C[C@H]1c1ccccc1)(c1ccccn1)N(C)C (relative stereo) [Example 58, trans N,N-dimethyl-a-ethyl-a-(2-phenyl-1-cyclopropylmethyl)-(2-pyridyl)methanamine]",,,,70,80,
"CCC(N)(CC=Cc1ccccc1)c1ccc(Cl)cc1 (stereo not drawn) [Example 4, a-cinnamyl-a-ethyl-p.chlorobenzylamine]",,,,60,,
"CCC(N)(CC=Cc1ccc(Cl)c(Cl)c1)c1cccc(C(F)(F)F)c1 (stereo not drawn) [Example 15, a-(3',4'-dichloro)cinnamyl-a-ethyl-m.trifluoromethylbenzylamin]",,,,,,"ED50 ([1]; ip, read-out: i.p.: DE50): > 25 mg/kg"
"CCC(N)(CC=Cc1ccccc1)c1ccc(OC)cc1 (stereo not drawn) [Example 8, a-cinnamyl-a-ethyl-p.metoxybenzylamine]",,,,80,,
"CCC(CC=Cc1cccs1)(c1ccsc1)N(C)C (stereo not drawn) [Example 69, N,N-dimethyl-a-ethyl-a-[3-(2-thienyl)-2-propenyl]-3-thienylmethylamine]",,,,90,80,
"CCC(CC=Cc1cccs1)(c1cccs1)N(C)C (stereo not drawn) [Example 65, N,N-dimethyl-a-ethyl-a-[3-(2-thienyl)-2-propenyl]-2-thienylmethylamine]",,,,90,50,
CCC(CC=Cc1cc(OC)c(OC)c(OC)c1)(c1ccccc1)N(C)C (stereo not drawn) [Example 37],100,150,230,,,change in vivo at 5 mg/kg (bladder of the rat; [3]): 188%; change in vivo at 5 mg/kg (bladder of the rat; read-out: % variation volume): 53%
"CCC(N)(CC=Cc1ccccc1)c1ccc(C)cc1 (stereo not drawn) [Example 6, a-cinnamyl-a-ethyl-p.methylbenzylamine]",,,,70,70,
"CCC(CC=Cc1ccccc1)(c1ccccc1)N(C)C (single isomer, unassigned; (-)) [Example 49, (-)a-cinnamyl-N,N-dimethyl-a-ethylbenzylamine]",,,,100,100,
